Results taken from ChEMBL document CHEMBL3132769, “Fragment growing to retain or alter the selectivity of anchored kinase hinge-binding fragments” (Medchemcomm, 2014).

Assays:
[1] = target: T1, Testis-specific serine/threonine-protein kinase 2 (Homo sapiens) (UniProt Q96PF2); assay: Inhibition of human full length TSSK2 expressed in baculovirus assessed as substrate phosphorylation using fluorescence-labelled peptides as substrate at 95 uM after 90 mins by microfluidic peptide phosphorylation assay
T1 sequence (whole entry): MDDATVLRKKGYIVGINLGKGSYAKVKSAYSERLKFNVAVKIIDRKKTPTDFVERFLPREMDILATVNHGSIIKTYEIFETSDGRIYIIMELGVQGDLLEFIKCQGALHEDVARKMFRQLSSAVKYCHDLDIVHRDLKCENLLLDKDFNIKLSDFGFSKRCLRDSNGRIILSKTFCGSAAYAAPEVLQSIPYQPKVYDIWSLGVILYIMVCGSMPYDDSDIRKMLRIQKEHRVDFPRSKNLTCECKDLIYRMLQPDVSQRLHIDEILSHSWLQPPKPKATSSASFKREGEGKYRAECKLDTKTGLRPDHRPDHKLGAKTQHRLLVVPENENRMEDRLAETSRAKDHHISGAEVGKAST

[2] = target: Tyrosine-protein kinase Lyn (Homo sapiens) (UniProt P07948); assay: Inhibition of human full length LYN expressed in baculovirus assessed as substrate phosphorylation using fluorescence-labelled peptides as substrate at 0.2 uM after 90 mins by microfluidic peptide phosphorylation assay
[3] = target: Insulin-like growth factor 1 receptor (Homo sapiens) (UniProt P08069); assay: Inhibition of human IGF1R catalytic domain expressed in baculovirus assessed as substrate phosphorylation using fluorescence-labelled peptides as substrate at 0.2 uM after 90 mins by microfluidic peptide phosphorylation assay
[4] = target: Protein kinase C delta type (Homo sapiens) (UniProt Q05655); assay: Inhibition of human truncated PKC delta expressed in baculovirus assessed as substrate phosphorylation using fluorescence-labelled peptides as substrate at 8 uM after 90 mins by microfluidic peptide phosphorylation assay
[5] = target: T2, Serine/threonine-protein kinase Sgk2 (Homo sapiens) (UniProt Q9HBY8); assay: Inhibition of human full length SGK2 expressed in baculovirus assessed as substrate phosphorylation using fluorescence-labelled peptides as substrate at 2 uM after 90 mins by microfluidic peptide phosphorylation assay
T2 sequence (whole entry): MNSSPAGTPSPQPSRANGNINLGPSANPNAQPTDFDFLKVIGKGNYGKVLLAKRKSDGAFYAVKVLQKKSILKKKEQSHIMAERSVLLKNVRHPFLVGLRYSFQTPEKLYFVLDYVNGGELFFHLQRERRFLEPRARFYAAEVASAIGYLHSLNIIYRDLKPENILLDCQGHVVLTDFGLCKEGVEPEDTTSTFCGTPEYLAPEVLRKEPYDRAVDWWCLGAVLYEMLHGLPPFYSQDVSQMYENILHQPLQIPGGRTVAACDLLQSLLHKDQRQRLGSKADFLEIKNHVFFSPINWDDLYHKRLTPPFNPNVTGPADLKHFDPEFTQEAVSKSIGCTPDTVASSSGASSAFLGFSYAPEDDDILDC

[6] = target: T3, Serine/threonine-protein kinase DCLK2 (Homo sapiens) (UniProt Q8N568); assay: Inhibition of human full length DCAMKL2 expressed in baculovirus assessed as substrate phosphorylation using fluorescence-labelled peptides as substrate at 2 uM after 90 mins by microfluidic peptide phosphorylation assay
T3 sequence (whole entry): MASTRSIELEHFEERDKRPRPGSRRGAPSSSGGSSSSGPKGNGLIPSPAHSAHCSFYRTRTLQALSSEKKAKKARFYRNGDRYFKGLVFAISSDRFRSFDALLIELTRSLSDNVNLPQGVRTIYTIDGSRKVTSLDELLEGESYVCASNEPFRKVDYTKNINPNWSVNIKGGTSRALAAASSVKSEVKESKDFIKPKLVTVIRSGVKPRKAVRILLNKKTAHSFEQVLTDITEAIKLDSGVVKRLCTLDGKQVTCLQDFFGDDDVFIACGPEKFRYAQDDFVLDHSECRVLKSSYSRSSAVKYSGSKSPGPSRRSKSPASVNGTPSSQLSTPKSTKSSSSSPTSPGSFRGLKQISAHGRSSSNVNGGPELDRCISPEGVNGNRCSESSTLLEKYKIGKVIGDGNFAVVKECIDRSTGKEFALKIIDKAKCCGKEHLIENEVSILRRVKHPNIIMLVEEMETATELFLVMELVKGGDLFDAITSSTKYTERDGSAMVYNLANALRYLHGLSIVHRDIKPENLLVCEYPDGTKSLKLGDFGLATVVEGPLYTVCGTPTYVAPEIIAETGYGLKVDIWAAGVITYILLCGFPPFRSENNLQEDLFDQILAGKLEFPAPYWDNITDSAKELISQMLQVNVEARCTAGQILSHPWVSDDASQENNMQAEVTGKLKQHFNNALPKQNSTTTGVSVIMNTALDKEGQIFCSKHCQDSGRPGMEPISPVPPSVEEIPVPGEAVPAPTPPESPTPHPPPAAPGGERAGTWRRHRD

[7] = target: T3, Serine/threonine-protein kinase DCLK2 (Homo sapiens); assay: Inhibition of human full length DCAMKL2 expressed in baculovirus assessed as substrate phosphorylation using fluorescence-labelled peptides as substrate at 1000 uM after 90 mins by microfluidic peptide phosphorylation assay
[8] = target: Tyrosine-protein kinase Fer (Homo sapiens) (UniProt P16591); settings: 0.1 uM
Description: Inhibition of human FER catalytic domain expressed in baculovirus assessed as substrate phosphorylation using fluorescence-labelled peptides as substrate at 0.1 uM after 90 mins by microfluidic peptide phosphorylation assay

[9] = target: Serine/threonine-protein kinase MARK1 (Homo sapiens) (UniProt Q9P0L2); assay: Inhibition of human full length MARK1 expressed in baculovirus assessed as substrate phosphorylation using fluorescence-labelled peptides as substrate at […] after 90 mins by microfluidic peptide phosphorylation assay
[10] = target: Protein kinase C eta type (Homo sapiens) (UniProt P24723); assay: Inhibition of human truncated PKC eta expressed in baculovirus assessed as substrate phosphorylation using fluorescence-labelled peptides as substrate at 420 uM after 90 mins by microfluidic peptide phosphorylation assay
[11] = system: Tyrosine-protein kinase ABL1 (Homo sapiens), P00519 [Q252H]; assay: Inhibition of human truncated ABL Q252H mutant expressed in baculovirus assessed as substrate phosphorylation using fluorescence-labelled peptides as substrate at 70 uM after 90 mins by microfluidic peptide phosphorylation assay

Sequence of Protein kinase C delta type (Homo sapiens) (Q05655 whole entry, looked up, the tested form may be a part): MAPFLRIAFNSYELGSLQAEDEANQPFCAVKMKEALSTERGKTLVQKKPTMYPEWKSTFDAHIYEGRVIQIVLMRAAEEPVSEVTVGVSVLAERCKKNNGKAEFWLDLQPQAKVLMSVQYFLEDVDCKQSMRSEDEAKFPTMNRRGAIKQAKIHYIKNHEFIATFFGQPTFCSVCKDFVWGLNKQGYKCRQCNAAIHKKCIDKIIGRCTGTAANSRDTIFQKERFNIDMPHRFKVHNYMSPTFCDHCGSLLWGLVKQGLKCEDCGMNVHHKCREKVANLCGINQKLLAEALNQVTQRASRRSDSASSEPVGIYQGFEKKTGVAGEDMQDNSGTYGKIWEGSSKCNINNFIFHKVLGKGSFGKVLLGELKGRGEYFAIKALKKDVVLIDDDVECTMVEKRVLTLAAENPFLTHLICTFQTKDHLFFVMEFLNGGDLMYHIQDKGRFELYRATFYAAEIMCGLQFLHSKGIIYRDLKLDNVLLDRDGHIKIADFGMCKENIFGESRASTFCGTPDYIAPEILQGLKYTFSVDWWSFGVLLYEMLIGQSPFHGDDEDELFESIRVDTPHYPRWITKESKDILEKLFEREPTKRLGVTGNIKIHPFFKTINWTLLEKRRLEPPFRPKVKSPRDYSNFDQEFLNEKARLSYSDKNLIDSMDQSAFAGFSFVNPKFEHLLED
Sequence of Protein kinase C eta type (Homo sapiens) (P24723 whole entry, the tested form may be a part): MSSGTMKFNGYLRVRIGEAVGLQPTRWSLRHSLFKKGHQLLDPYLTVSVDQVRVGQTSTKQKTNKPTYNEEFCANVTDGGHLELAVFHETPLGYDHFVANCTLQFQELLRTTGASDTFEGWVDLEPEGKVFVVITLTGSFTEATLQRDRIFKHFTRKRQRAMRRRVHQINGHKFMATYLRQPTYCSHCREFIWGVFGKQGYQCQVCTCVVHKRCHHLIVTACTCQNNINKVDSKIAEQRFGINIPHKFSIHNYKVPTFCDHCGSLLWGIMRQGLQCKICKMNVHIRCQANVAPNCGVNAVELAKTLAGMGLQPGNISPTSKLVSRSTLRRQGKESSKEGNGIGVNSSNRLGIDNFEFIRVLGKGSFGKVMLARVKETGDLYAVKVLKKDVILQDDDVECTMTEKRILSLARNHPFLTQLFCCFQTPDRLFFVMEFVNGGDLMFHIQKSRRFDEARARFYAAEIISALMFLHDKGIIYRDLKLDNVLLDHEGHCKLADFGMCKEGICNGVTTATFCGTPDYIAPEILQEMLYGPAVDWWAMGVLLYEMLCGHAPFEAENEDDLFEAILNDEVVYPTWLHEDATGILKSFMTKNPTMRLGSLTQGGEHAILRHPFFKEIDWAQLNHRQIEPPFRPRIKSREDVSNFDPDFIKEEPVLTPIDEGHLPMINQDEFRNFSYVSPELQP
Sequence of Tyrosine-protein kinase Lyn (Homo sapiens) (P07948 2-512 limits assumed): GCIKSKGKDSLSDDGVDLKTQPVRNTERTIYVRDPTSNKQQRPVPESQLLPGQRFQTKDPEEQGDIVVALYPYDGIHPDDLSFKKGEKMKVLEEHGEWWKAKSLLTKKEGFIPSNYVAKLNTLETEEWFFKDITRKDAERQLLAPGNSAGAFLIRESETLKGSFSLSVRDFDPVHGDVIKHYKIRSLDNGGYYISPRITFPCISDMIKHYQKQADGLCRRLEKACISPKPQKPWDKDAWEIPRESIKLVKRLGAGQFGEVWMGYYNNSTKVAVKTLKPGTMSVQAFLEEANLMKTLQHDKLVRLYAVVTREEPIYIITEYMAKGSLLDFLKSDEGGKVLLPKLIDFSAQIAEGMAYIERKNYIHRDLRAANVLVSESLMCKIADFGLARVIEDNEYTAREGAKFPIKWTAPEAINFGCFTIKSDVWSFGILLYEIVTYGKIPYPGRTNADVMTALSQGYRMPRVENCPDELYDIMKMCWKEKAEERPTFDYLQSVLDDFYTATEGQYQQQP
Sequence of Serine/threonine-protein kinase MARK1 (Homo sapiens) (Q9P0L2 whole entry, looked up, the tested form may be a part): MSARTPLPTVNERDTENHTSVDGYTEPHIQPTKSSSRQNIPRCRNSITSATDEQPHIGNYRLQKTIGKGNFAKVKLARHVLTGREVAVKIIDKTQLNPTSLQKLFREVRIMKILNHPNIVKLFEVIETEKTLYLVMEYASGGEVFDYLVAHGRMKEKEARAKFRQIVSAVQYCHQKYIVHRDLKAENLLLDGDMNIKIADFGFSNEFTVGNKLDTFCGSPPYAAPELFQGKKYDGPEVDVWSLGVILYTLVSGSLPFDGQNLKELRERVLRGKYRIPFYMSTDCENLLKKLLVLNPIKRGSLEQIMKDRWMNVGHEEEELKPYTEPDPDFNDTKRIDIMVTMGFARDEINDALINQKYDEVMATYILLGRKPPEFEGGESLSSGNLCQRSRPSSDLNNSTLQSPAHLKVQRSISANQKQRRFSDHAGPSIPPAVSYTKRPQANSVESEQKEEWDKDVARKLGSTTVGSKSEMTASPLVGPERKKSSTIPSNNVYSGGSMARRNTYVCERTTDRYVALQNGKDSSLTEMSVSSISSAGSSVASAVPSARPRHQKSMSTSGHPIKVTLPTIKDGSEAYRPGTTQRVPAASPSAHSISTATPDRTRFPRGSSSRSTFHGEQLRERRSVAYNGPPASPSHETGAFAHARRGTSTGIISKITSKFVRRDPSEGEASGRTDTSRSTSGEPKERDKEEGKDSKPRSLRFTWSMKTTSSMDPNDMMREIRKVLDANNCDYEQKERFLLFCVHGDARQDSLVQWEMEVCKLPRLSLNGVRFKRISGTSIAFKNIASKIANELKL
Sequence of Tyrosine-protein kinase Fer (Homo sapiens) (P16591 whole entry, looked up): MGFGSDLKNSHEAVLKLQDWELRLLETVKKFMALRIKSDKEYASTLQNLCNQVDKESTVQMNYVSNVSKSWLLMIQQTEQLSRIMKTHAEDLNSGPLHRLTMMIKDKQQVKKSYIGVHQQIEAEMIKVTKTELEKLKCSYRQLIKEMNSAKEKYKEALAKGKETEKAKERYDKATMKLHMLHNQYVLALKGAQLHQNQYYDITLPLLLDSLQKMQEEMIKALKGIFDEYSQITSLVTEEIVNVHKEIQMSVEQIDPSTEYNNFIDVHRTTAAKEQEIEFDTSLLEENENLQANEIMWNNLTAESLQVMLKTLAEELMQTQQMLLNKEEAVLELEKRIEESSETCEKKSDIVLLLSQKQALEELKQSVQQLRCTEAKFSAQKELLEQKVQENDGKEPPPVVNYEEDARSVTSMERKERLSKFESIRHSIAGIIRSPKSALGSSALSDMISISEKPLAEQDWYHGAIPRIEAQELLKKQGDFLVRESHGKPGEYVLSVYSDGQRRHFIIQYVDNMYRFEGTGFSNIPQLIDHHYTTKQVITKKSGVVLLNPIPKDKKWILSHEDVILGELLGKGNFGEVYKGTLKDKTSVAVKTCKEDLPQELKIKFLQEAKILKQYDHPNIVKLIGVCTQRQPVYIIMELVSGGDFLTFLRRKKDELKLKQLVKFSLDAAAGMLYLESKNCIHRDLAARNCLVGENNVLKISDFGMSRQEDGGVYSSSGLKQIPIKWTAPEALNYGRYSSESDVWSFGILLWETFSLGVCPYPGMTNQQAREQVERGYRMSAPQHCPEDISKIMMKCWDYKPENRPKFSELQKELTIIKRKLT

Question: `NCCc1ccc(-c2ncnc3[nH]cnc23)cc1` was tested. Which inhibition [1] did it give?
Answer: The inhibition was 23.5%.

Question: Which results are given for `Clc1ccc(C2(c3ccc(-c4ncnc5[nH]cnc45)cc3)CCNCC2)cc1`?
Answer: inhibition [2]: 18%; inhibition [3]: 5%

Question: With `NCC1CCN(c2ncnc3[nH]ccc23)CC1` as the compound, how does the inhibition [4] read?
Answer: Its inhibition is 67%.

Question: Which inhibition [5] does the source give for `NC1CCN(c2ncnc3[nH]ccc23)CC1` here?
Answer: Its inhibition is 46.5%.

Question: What about the inhibition [6] of the same compound?
Answer: The inhibition was 1.5%.

Question: Which inhibition [7] does the source give for `c1cnc2[nH]ccc2c1` here?
Answer: The inhibition was 15%.

Question: Which inhibition [8] does the source give for `C[C@H](CN(C)C)Oc1nc(Nc2cc3cccc(Cl)c3cn2)cnc1C#N` here?
Answer: The inhibition was 0%.

Question: `COC(=O)c1cnc(Nc2cnc(C#N)cn2)cc1NCC1CCNCC1` was tested. Which inhibition [9] did it give?
Answer: Its inhibition is 5%.

Question: For `c1nc(N2CCOCC2)c2nc[nH]c2n1`, which inhibition [10] is on record?
Answer: Its inhibition is 82%.

Question: How did the inhibition [11] turn out when `CNCc1ccc(-c2ncnc3[nH]cnc23)cc1` was run?
Answer: The inhibition was 39%.
